Data published in article PMC10223019, “Preclinical Evaluation of a PSMA-Targeting Homodimer with an Optimized Linker for Imaging of Prostate Cancer” (Molecules, 2023).

Columns and labels:
[1] = Stability in phosphate-buffered saline (PBS), radio-HPLC; type: physicochemical; conditions: 24 h post-incubation, 37 °C, indium-111 labeled, intact fraction
Method: [^111In]In-22 or [^111In]In-30 (~10 MBq, 20 µL) was mixed with 80 μL of PBS (0.01 M, pH 7.4) and incubated at 37 °C for up to 24 h. A sample of the PBS solution was loaded directly onto the radio-HPLC at 1, 4, and 24 h post-incubation.

[2] = tested on: PSMA expressing LS174T cells; assay: Internalization and cell uptake assay; type: cell-based, human; conditions: 2 h 37 °C
Method: LS174T human colon carcinoma cells transfected with human PSMA were obtained from Dr. Sandra Heskamp (Radboud UMC, Nijmegen). Cells were cultured in RPMI-1640 media supplemented with 2 mM glutamine, 10% fetal bovine serum (FBS) and 0.3 mg/mL G418 (Geneticin, Sigma Aldrich, St. Louis, MO, USA).
Cells were seeded (1.2 × 10^6 cells/well) and cultured to confluency for 24 h prior to experiments. We prepared 10^−9 M solutions of [^111In]In-PSMA-617, [^111In]In-22, and [^111In]In-30 in internalization media (RPMI, 20 mM HEPES, 1% BSA, pH 7.4). The media were removed from each well, and they were rinsed twice with PBS at rt. 2 mL of the radioactive compound was then added to each well and incubated at 37 °C for 2 h. For the internalization assay, the media containing radioactive compound were removed, and each well was washed twice with cold PBS. A total of 1 mL of Glycine buffer (50 mM glycine, 100 mM NaCl, pH 2.8) was added immediately and incubated for 10 min at rt. The glycine wash was then collected into counting tubes (membrane-bound fraction). An extra wash was performed and collected in the same tubes. A total of 1 mL of NaOH (1 M) was then added to each tube and left for 15 min at rt. The lysate (internalized fraction) was then collected in separate counting tubes, together with one extra NaOH wash. Data were normalized to 1,000,000 cells and percentage added dose.

[3] = tested on: BALB/c nude mice bearing LS174T PSMA-positive tumor xenografts; assay: Ex vivo biodistribution studies; type: in vivo
Method: Animal experiments were performed in 8–10 weeks old male BALB/c nude mice (Janvier Labs, Le Genest-Saint-Isle, France). Animals were housed in individually ventilated cages (Blue line IVC, 4 mice per cage) under nonsterile standard conditions with cage enrichment present and free access to chlorophyll-free animal chow (Sniff GmbH, Soest, Germany) and water and acclimated for 1 week before experiments. Mice were subcutaneously inoculated with 4.0 × 10^6 LS174T cells in the right flank, diluted in 100 μL of cell suspension. Seven days after tumor cell inoculation, when xenografts were approximately 0.2–0.3 cm^3, the tracers were injected intravenously via the tail vein. All experiments were approved by the institutional Animal Welfare Committee and were conducted in accordance with the guidelines of the Revised Dutch Act on Animal Experimentation (WOD).
Mice were intravenously injected with ~1 nmol of either [^111In]In-PSMA-617, [^111In]In-22 or [^111In]In-30 with molar activity of 5 MBq/nmol for ex vivo biodistribution studies. Mice (n = 4/timepoint) were euthanized by cervical dislocation at 1, 4, and 24 h p.i. A block group was included, and mice were euthanized at 4 h p.i. Organs were collected in tubes and counted in the gamma counter, where the calibration factor was determined by measuring different known activities of indium-111.

[4] = Stability in mouse serum, radio-HPLC; type: in vitro ADME
Method: [^111In]In-22 or [^111In]In-30 (~35 MBq, 70 µL) was mixed with 330 μL of mouse serum and incubated at 37 °C for up to 24 h. After 1, 4, and 24 h incubation, 50 μL of the mouse serum solution was added to a separate vial containing 50 µL of acetonitrile. The sample was centrifuged at 5000× g for 20 min. The supernatant was analyzed by radio-HPLC.

[5] = LogD7.4 by shake-flask method (PBS/n-octanol); type: physicochemical; conditions: LogD7.4, PBS pH 7.4/n-octanol, indium-111 labeled compound
Method: The distribution coefficients (LogD7.4 values) were determined by a shake-flask method, in which 2 μL (~0.5 MBq) of the labeling solution ([^111In]In-22 or [^111In]In-30) were added to an Eppendorf tube containing 1 mL of PBS (0.01 M, pH 7.4)/n-octanol (v/v, 1:1). After vigorous vortexing, the solution was centrifuged at 2500× g for 15 min for phase separation. Samples (3 × 10 μL) of the two phases were taken out and measured in a gamma counter. LogD7.4 values were calculated by using the following equation: LogD7.4 = log [(counts in octanol phase)/(counts in aqueous phase)] and the experiment was performed in triplicate.

[6] = 4 h p.i. block group (excess unlabeled PSMA ligand)

## CC(C)C[C@H](NC(=O)[C@H](Cc1ccccc1)NC(=O)[C@H](CC(=O)O)NC(=O)CCC(C(=O)O)N1CCN(CC(=O)[O-])CCN(CC(=O)[O-])CCN(CC(=O)[O-])CC1)[C@@H](O)CC(=O)NCCCCCC(=O)NCCCC[C@H](NC(=O)N[C@@H](CCC(=O)O)C(=O)O)C(=O)O.[111In+3] (stereo partly drawn) [[^111In]In-22]
[1]
  Stability in PBS (%): 95.4%
[2]; 10^-9 M, NaOH lysate
  Internalized fraction: 0.53 ± 0.08 % AD
[2]; 10^-9 M, glycine wash
  Membrane-bound uptake: 1.02 ± 0.15 % AD
[2]; 10^-9 M, normalized to 1,000,000 cells
  Total uptake: 1.55 ± 0.21 % AD
[2]
  Internalized fraction as share of total uptake (internalization): 34.2%
  Membrane-bound uptake as share of total uptake: 66%
[2]; listed as [111In]In-22
  Membrane-bound uptake as share of total uptake: 65.8%
[3]; 1 h p.i.
  Tumor-to-muscle (T/M) ratio: 31
[3]; 1 h p.i., i.v. ~1 nmol
  Blood uptake: 0.14 ± 0.01 % ID/g
  Bone uptake: 0.20 ± 0.01 % ID/g
  Heart uptake: 0.13 ± 0.05 % ID/g
  Intestines uptake: 0.26 ± 0.17 % ID/g
  Kidney uptake: 22.56 ± 2.59 % ID/g
  Liver uptake: 0.17 ± 0.03 % ID/g
  Lung uptake: 0.45 ± 0.07 % ID/g
  Muscle uptake: 0.07 ± 0.01 % ID/g
  Pancreas uptake: 0.22 ± 0.03 % ID/g
  Prostate uptake: 0.51 ± 0.25 % ID/g
  Skin uptake: 0.44 ± 0.16 % ID/g
  Spleen uptake: 1.82 ± 0.37 % ID/g
  Stomach uptake: 0.11 ± 0.01 % ID/g
  Tumor uptake: 2.05 ± 0.52 % ID/g
[3]; 4 h p.i.
  Tumor-to-muscle (T/M) ratio: 48
[3]; [6]
  Blood uptake: 0.02 ± 0.00 % ID/g
  Bone uptake: 0.23 ± 0.13 % ID/g
  Heart uptake: 0.04 ± 0.01 % ID/g
  Intestines uptake: 0.27 ± 0.03 % ID/g
  Kidney uptake: 8.20 ± 0.67 % ID/g
  Liver uptake: 0.09 ± 0.00 % ID/g
  Lung uptake: 0.09 ± 0.01 % ID/g
  Muscle uptake: 0.03 ± 0.01 % ID/g
  Pancreas uptake: 0.04 ± 0.01 % ID/g
  Prostate uptake: 0.09 ± 0.01 % ID/g
  Skin uptake: 0.24 ± 0.07 % ID/g
  Spleen uptake: 0.09 ± 0.00 % ID/g
  Stomach uptake: 0.17 ± 0.13 % ID/g
  Tumor uptake: 0.27 ± 0.14 % ID/g
[3]; 4 h p.i., i.v. ~1 nmol
  Blood uptake: 0.02 ± 0.01 % ID/g
  Bone uptake: 0.11 ± 0.06 % ID/g
  Heart uptake: 0.04 ± 0.01 % ID/g
  Intestines uptake: 0.30 ± 0.05 % ID/g
  Kidney uptake: 13.55 ± 1.04 % ID/g
  Liver uptake: 0.10 ± 0.01 % ID/g
  Lung uptake: 0.12 ± 0.03 % ID/g
  Muscle uptake: 0.03 ± 0.02 % ID/g
  Pancreas uptake: 0.06 ± 0.03 % ID/g
  Prostate uptake: 0.18 ± 0.17 % ID/g
  Skin uptake: 0.24 ± 0.18 % ID/g
  Spleen uptake: 0.30 ± 0.09 % ID/g
  Stomach uptake: 0.09 ± 0.06 % ID/g
  Tumor uptake: 1.23 ± 0.59 % ID/g
[3]; 24 h p.i.
  Tumor-to-muscle (T/M) ratio: 14
[3]; 24 h p.i., i.v. ~1 nmol
  Bone uptake: 0.13 ± 0.04 % ID/g
  Heart uptake: 0.03 ± 0.01 % ID/g
  Intestines uptake: 0.04 ± 0.02 % ID/g
  Kidney uptake: 5.89 ± 1.49 % ID/g
  Liver uptake: 0.06 ± 0.01 % ID/g
  Lung uptake: 0.05 ± 0.01 % ID/g
  Muscle uptake: 0.03 ± 0.00 % ID/g
  Pancreas uptake: 0.03 ± 0.01 % ID/g
  Prostate uptake: 0.08 ± 0.03 % ID/g
  Skin uptake: 0.15 ± 0.01 % ID/g
  Spleen uptake: 0.09 ± 0.02 % ID/g
  Stomach uptake: 0.02 ± 0.01 % ID/g
  Tumor uptake: 0.61 ± 0.40 % ID/g
[3]; 24 h p.i., i.v. ~1 nmol, listed as [111In]In-22
  Tumor uptake: 0.41 ± 0.08 % ID/g
[4]; 24 h post-incubation, 37 °C, indium-111 labeled, intact fraction
  Stability in Mouse Serum (%): 95.1%
[4]; mouse serum up to 24 h
  Proteolytic degradation: No proteolytic degradation
[5]
  logD: −3.26 ± 0.05
